Data taken from patent US20080241862A1, “PROPIONYL AND BUTYRYL LYSINE MODIFICATIONS IN PROTEINS” (priority 2007, published 2008).

System: K^Buty of H3 and H4 in HeLa cells
Experiment: K^Buty level in histones of HeLa cells treated with HDAC inhibitors (immunoblot)
Assay type: cell-based
Settings: anti-K^Buty immunoblot
Method: FIGS. 17A-C. […] Four peptide libraries were spotted on nitrocellulose membrane with four dilutions and were used to assay the antibody's specificity. The 14-residue randomized peptide libraries have a fixed residue at 8th position, K^Ac in lane 1, K^Prop in lane 2, K^Buty in lane 3, and K in lane 4. Dot-blot analysis was used to test the specificity of the antibody. To perform the dot-blot analysis, 2 ul of peptide diluted in distilled water to different concentrations was spotted on a strip of nitrocellulose membrane and allowed to air dry. The membrane was then assayed in a manner similar to that used in the immunoblot analysis. […] Lane 3 and 4 are WB controls using anti-H3 and anti-H4 antibodies, respectively. For antibody competition assay, 200 ng of anti-K^Buty antibody was incubated with 1 ug of a peptide library with a fixed non-modified lysine (lane 1) or with a fixed butyryllysine (lane 2), respectively. After incubation for 3 hour at room temperature, the antibody was subjected to immunoblot against core histones derived from Hela cells. Histone H3 and H4 antibodies were used to indicate the positions of H3 or H4 (lane 3 and lane 4). […] The core histones were prepared from HeLa cells treated with nothing, or trichostatin A (TSA), or sodium butyrate (NaBu), as indicated. […]

| Compound | K^Buty level (20 mM for 6 hours) | K^Buty level (10 uM, 6 Hours) |
| --- | --- | --- |
| CCCC(=O)[O-].[Na+] [sodium butyrate] | dramatically induced |  |
| CC(/C=C/C(=O)NO)=C\[C@@H](C)C(=O)c1ccc(N(C)C)cc1 [trichostatin A] |  | dramatically induced |
